Like-named read-outs stand apart in the source and are kept apart here.
How the values were obtained:
[1] = test system: H3K27me3 mark in MDA-MB-231 cells; assay: High content analysis (HCA) of cellular H3K27me3 mark, washout format; assay type: cell-based; details: for AUC (a.u.): HCA H3K27 methylation washout pIC50 AUC over all incubation/washout times; for IC50: Homo sapiens
Protocol: In the low- and high-signal control wells, test compounds were replaced by 10 µM of EZH2 inhibitor (equal to unlabeled probe from ePCA and kPCA) or DMSO, respectively. […] After fixation, the cells were washed with PBS and incubated with 1% BSA blocking solution at RT for 1 h. Blocking solution was discarded, primary monoclonal antibody rabbit Tri-methyl-histone H3K27 (C36B11, Cell signaling) diluted 1:200 in blocking solution was added and incubated overnight at 4 °C. […] Afterwards, cells were washed three times with PBS and incubated at 4 °C until measuring. Fluorescence signals were captured by an Opera Phenix™ High Content Screening (HCA) system (Perkin Elmer) by 10× magnification. […] Microscopy images were initially visualized and preprocessed with MetaXpress High Content Image Acquisition & Analysis Software (Molecular Devices) as previously described. Raw data import, normalization, quality control and fitting curves for IC50 determination of tested compounds were done with Genedata Screener® for high-content screening. Wells with no recognizable signals were masked and the average intensity of the trimethylation signal was normalized to the DMSO control (0%).

in vitro = in vitro ADME; details: human, Caco-2, pH 7.2, 2 µM, 2 h, 37 °C; for Papp A→B at 2 h, 2 µM: apical to basolateral, read-out: PK Caco-2 Flux Papp A-B (mean); for Papp B→A at 2 h, 2 µM: basolateral to apical, read-out: PK Caco-2 Flux Papp B-A (mean)
Protocol: Cells were kept at 37 °C in a humidified 5% CO2 atmosphere. Before the permeation assay was run, the culture medium was replaced by an FCS-free HEPES carbonate transport buffer (pH 7.2). For assessment of monolayer integrity, the transepithelial electrical resistance was measured. Test compounds were pre-dissolved in DMSO and added either to the apical or basolateral compartment at a final concentration of 2 µM. Before and after 2 h incubation at 37 °C, samples were taken from both compartments. Analysis of compound content was conducted after precipitation with methanol by LC/MS/MS analysis. Reference compounds were analyzed in parallel as assay control. Permeability (Papp) was calculated in the apical to basolateral (A → B) and basolateral to apical (B → A) directions. The efflux ratio basolateral (B) to apical (A) was calculated by dividing Papp B–A by Papp A–B.

KARPAS-422 cells = assay: Cellular proliferation assay (AlamarBlue, 144 h); assay type: cell-based; details: Homo sapiens; KARPAS-422 cells, 6-day (144 h), AlamarBlue; read-out: KARPAS (6-day) Anti-proliferation IC50
Protocol: Cell viability was determined by means of the AlamarBlue® reagent (Thermo Fisher Scientific) following instructions from the manufacturer. […] Anti-proliferative IC50s were calculated by fitting the normalized AlamarBlue® fluorescence values to a 4-parameter logistic equation using the Electronic Notebook (ELN) software from IDBS.

Row | SMILES | AUC (a.u.) [1] [a.u.] | Papp A→B at 2 h, 2 µM (in vitro) [×10⁻⁶ cm/s] | Papp B→A at 2 h, 2 µM (in vitro) [×10⁻⁶ cm/s] | IC50 ([1]; MDA-MB-231, H3K27 methylation HCA, incubation time 0.5 h, washout time 71.5 h, read-out: Mean IC50) [M] | IC50 ([1]; MDA-MB-231, H3K27 methylation HCA, incubation time 2 h, washout time 70 h, read-out: Mean IC50) [M] | IC50 ([1]; MDA-MB-231, H3K27 methylation HCA, incubation time 4 h, washout time 68 h, read-out: Mean IC50) [M] | IC50 ([1]; MDA-MB-231, H3K27 methylation HCA, incubation time 24 h, washout time 48 h, read-out: Mean IC50) [M] | IC50 ([1]; MDA-MB-231, H3K27 methylation HCA, incubation time 48 h, washout time 24 h, read-out: Mean IC50) [M] | IC50 (KARPAS-422 cells) [µM] | IC50 ([1]; MDA-MB-231, read-out: Mean IC50 (M), H3K27 methylation HCA, incubation time 0.5 h, washout time 71.5 h) [M] | IC50 ([1]; MDA-MB-231, read-out: Mean IC50 (M), H3K27 methylation HCA, incubation time 1 h, washout time 71 h) [M] | IC50 ([1]; MDA-MB-231, read-out: Mean IC50 (M), H3K27 methylation HCA, incubation time 24 h, washout time 48 h) [M] | IC50 ([1]; MDA-MB-231, read-out: Mean IC50 (M), H3K27 methylation HCA, incubation time 48 h, washout time 24 h) [M] | IC50 ([1]; MDA-MB-231, read-out: Mean IC50 (M), H3K27 methylation HCA, incubation time 72 h, washout time 0 h) [M]
1 | CCN(c1cc(-c2ccc(CN3CCOCC3)cc2)cc(C(=O)NCc2c(C)cc(C)[nH]c2=O)c1C)C1CCOCC1 [Compound 2, Tazemetostat] | 79.9 | 1.18 | 28.1 | – | – | – | – | – | – | – | – | – | – | –
2 | CCN(c1cc(-c2ccc(CN3CCOCC3)cc2)cc(C(=O)NCc2c(C)cc(C)[nH]c2=O)c1C)C1CCOCC1 [Compound 3, Tazemetostat] | 93.5 | – | – | – | – | – | – | – | – | – | – | – | – | –
3 | CCS(=O)(=O)N1CCC([C@@H](C)n2c(C)c(C(=O)NCc3c(OC)cc(C)[nH]c3=O)c3ccccc32)CC1 [Compound 10, CPI-169] | 39.5 | 0.041 | 14.7 | > 1.2e-05 | > 1.2e-05 | > 1.2e-05 | > 1.2e-05 | 3.1e-06 | 0.86 | – | – | – | – | –
4 | Cc1cc(C)c(CNC(=O)c2cc(Cl)c3c(c2C)O[C@@](C)([C@H]2CC[C@H](N(C)C)CC2)O3)c(=O)[nH]1 [Compound 31, DS-3201] | 173.5 | 0.599 | 20.9 | – | – | – | – | – | – | 6.9e-07 | 2.3e-07 | 1.2e-07 | 3.9e-08 | 3.4e-09

Source: PMC10799085, “A miniaturized mode-of-action profiling platform enables high throughput characterization of the molecular and cellular dynamics of EZH2 inhibition” (Scientific Reports, 2024)
